Values of other authors in patent publication US20110052625A1, “COMPOSITIONS AND METHODS FOR TREATING DIABETES USING LISOFYLLINE ANALOGS AND ISLET NEOGENESIS ASSOCIATED PEPTIDE” (DIAKINE THERAPEUTICS, INC., priority 2008, published 2011).
Ends that are not written are not given here.

System: overt diabetic NOD (Non-Obese Diabetic) mice
Details: given alone; cited from earlier work

GLP-1: "a 300-amino-acid (peptide) incretin synthesized in the small and large intestine by the L-type cells" (HAEGTFTSDVSSYLEGQAAKEFIAWLVKGR; ends and bridges not checked; UniProt P01275 98-127, looked up)
effect on hyperglycemia: no effect
